Experimental data taken from patent publication US20230071840A1, “HETEROCYCLIC GLP-1 AGONISTS” (Gasherbrum Bio, Inc., priority 2020, published 2023).

biological target: GLP-1 Receptor (Homo sapiens, UniProt P43220); experiment: GLP-1R agonist cAMP stimulation assay (HEK293/GLP1R/CRE-LUC cells, cAMP dynamic 2 kit); type: cell-based; settings: GLP1R cAMP Stimulation DR: EC50 (nM)
Description: Activation of GLP-1 receptor is known to stimulate cyclic AMP (cAMP) production in cells which indicates primary coupling to the Gas subunit of the G protein heterotrimeric complex.
To optimize functional activity directed toward Gas coupling, a HEK293/CRE-Luc cell line developed by HDB stably expressing the GLP-1 Receptor was used. […] Seal the plate and incubate at 37° C. with 5% CO2 for 30 min.
After incubation the cAMP assay signal was generated using cAMP dynamic 2 Kit (Cisbio). 5 μL cAMP-d2 working solution was added to each well, followed with 5 μL Anti-cAMP antibody-cryptate working solution added to each well using ThermoFisher Multidrop Combi. Incubate at room temperature for 1 hour protected from light.
% Activity=[…]×(mean RLU of test sample−mean RLU of vehicle control)/(mean RLU of MAX control−mean RLU of vehicle control))

Chain of GLP-1 Receptor (P43220 24-463, species assumed): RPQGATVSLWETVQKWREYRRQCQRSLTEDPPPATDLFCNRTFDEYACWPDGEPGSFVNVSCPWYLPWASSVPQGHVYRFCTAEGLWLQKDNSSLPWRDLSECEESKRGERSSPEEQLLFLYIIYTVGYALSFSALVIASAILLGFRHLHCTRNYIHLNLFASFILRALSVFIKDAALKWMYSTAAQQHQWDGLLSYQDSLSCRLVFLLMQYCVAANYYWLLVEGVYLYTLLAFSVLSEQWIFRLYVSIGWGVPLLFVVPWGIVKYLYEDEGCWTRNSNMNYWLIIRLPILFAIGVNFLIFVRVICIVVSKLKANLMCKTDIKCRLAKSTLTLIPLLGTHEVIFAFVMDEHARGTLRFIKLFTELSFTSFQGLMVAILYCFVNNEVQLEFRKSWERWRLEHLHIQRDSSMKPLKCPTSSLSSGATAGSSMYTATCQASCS

SMILES | EC50
CC(c1cccc(OC2CCN(Cc3nc4ccc(C(=O)O)nc4n3C[C@@H]3CCO3)CC2)n1)c1ccc(Cl)cc1F (stereo partly drawn) [Compound 128a, 2-{[4-({6-[1-(4-chloro-2-fluorophenyl)ethyl]pyridin-2-yl}oxy)piperidin-1-yl]methyl}-3-{[(2S)-oxetan-2-yl]methyl}-3H-imidazo[4,5-b]pyridine-5-carboxylic acid] | 1.2 nM

same assay, conditions: HEK293/CRE-Luc cell line stably expressing the GLP-1 Receptor; 30 min incubation at 37° C.; read-out: GLP1R cAMP Stimulation DR: EC50

SMILES | EC50
O=C(O)c1ccc2nc(CN3CCC(Oc4ccnc(Cc5ccc(Cl)cc5C(F)(F)F)n4)CC3)n(C[C@@H]3CCO3)c2n1 [Compound 166a, 2-({4-[(2-{[4-chloro-2-(trifluoromethyl)phenyl]methyl}pyrimidin-4-yl)oxy]piperidin-1-yl}methyl)-3-{[(2S)-oxetan-2-yl]methyl}-3H-imidazo[4,5-b]pyridine-5-carboxylic acid] | 1 nM
O=C(O)c1ccc2nc(Cc3ccc(Oc4ccnc(Cc5ccc(Cl)cc5)n4)cc3)n(C[C@@H]3CCO3)c2c1 [Compound 187a, 2-{[4-({2-[(4-chlorophenyl)methyl]pyrimidin-4-yl}oxy)phenyl]methyl}-1-{[(2S)-oxetan-2-yl]methyl}-1H-1,3-benzodiazole-6-carboxylic acid] | 1.3 nM
O=C(O)c1ccc2nc(CN3CCC(Oc4ccc(=O)n(Cc5ccc(Cl)cc5F)n4)CC3)n(C[C@@H]3CCO3)c2n1 [Compound 144a, 2-{[4-({1-[(4-chloro-2-fluorophenyl)methyl]-6-oxo-1,6-dihydropyridazin-3-yl}oxy)piperidin-1-yl]methyl}-3-{[(2S)-oxetan-2-yl]methyl}-3H-imidazo[4,5-b]pyridine-5-carboxylic acid] | 4.8 nM
O=C(O)c1ccc2nc(C[C@H]3CC[C@H](Oc4cccc(Cc5ccc(Cl)cc5F)n4)CC3)n(C[C@@H]3CCO3)c2n1 [Compound 174b, 3-{[(2S)-oxetan-2-yl]methyl}-2-{[trans-4-({6-[(4-chloro-2-fluorophenyl)methyl]pyridin-2-yl}oxy)cyclohexyl]methyl}-3H-imidazo[4,5-b]pyridine-5-carboxylic acid] | 0.14 nM
O=C(O)c1ccc2nc(Cc3ccc(Oc4nc(Cc5ccc(Cl)cc5)ncc4F)cc3F)n(C[C@@H]3CCO3)c2c1 [Compound 191a, 2-{[4-({2-[(4-chlorophenyl)methyl]-5-fluoropyrimidin-4-yl}oxy)-2-fluorophenyl]methyl}-1-{[(2S)-oxetan-2-yl]methyl}-1H-1,3-benzodiazole-6-carboxylic acid] | 0.29 nM
CCOCCn1c(CN2CCC(Oc3ccnc(Cc4ccc(Cl)cc4)n3)CC2)nc2ccc(C(=O)O)nc21 [Compound 194, 2-((4-((2-(4-chlorobenzyl)pyrimidin-4-yl)oxy)piperidin-1-yl)methyl)-3-(2-ethoxyethyl)-3H-imidazo[4,5-b]pyridine-5-carboxylic acid] | 2.9 nM
O=C(O)c1ccc2nc(CN3CCC(Oc4ccc(F)c(Cc5ccc(Cl)cc5F)n4)CC3)n(C[C@@H]3CCO3)c2n1 [Compound 150a, (S)-2-((4-((6-(4-chloro-2-fluorobenzyl)-5-fluoropyridin-2-yl)oxy)piperidin-1-yl)methyl)-3-(oxetan-2-ylmethyl)-3H-imidazo[4,5-b]pyridine-5-carboxylic acid] | 68 nM
COC(C)Cn1c(CN2CCC(Oc3ccnc(Cc4ccc(Cl)cc4)n3)CC2)nc2ccc(C(=O)O)nc21 (stereo not drawn) [Compound 195, 2-((4-((2-(4-chlorobenzyl)pyrimidin-4-yl)oxy)piperidin-1-yl)methyl)-3-(2-methoxypropyl)-3H-imidazo[4,5-b]pyridine-5-carboxylic acid] | 0.6 nM
O=C(O)c1ccc2nc(C[C@H]3CC[C@H](Oc4ccnc(Cc5ccc(Cl)cc5F)n4)CC3)n(C[C@@H]3CCO3)c2n1 [Compound 175b, 3-{[(2S)-oxetan-2-yl]methyl}-2-{[trans-4-({2-[(4-chloro-2-fluorophenyl)methyl]pyrimidin-4-yl}oxy)cyclohexyl]methyl}-3H-imidazo[4,5-b]pyridine-5-carboxylic acid] | 0.063 nM
O=C(O)c1ccc2nc(CN3CCC(Oc4ccn(Cc5ccc(Cl)cc5F)n4)CC3)n(C[C@@H]3CCO3)c2c1 [Compound 116a, 2-{[4-({1-[(4-chloro-2-fluorophenyl)methyl]-1H-pyrazol-3-yl}oxy)piperidin-1-yl]methyl}-1-{[(2S)-oxetan-2-yl]methyl}-1H-1,3-benzodiazole-6-carboxylic acid] | 2.8 nM
O=C(O)c1ccc2nc(CN3CCC(Oc4cccc(Cc5cccc(Cl)c5)n4)CC3)n(C[C@@H]3CCO3)c2n1 [Compound 125a, (S)-2-((4-((6-(3-chlorobenzyl)pyridin-2-yl)oxy)piperidin-1-yl)methyl)-3-(oxetan-2-ylmethyl)-3H-imidazo[4,5-b]pyridine-5-carboxylic acid] | 1.4 nM
O=C(O)c1ccc2nc(CN3CCC(Oc4cccc(CN5Cc6ccccc6C5=O)n4)CC3)n(C[C@@H]3CCO3)c2n1 [Compound 148a, 3-{[(2S)-oxetan-2-yl]methyl}-2-{[4-({6-[(1-oxo-2,3-dihydro-1H-isoindol-2-yl)methyl]pyridin-2-yl}oxy)piperidin-1-yl]methyl}-3H-imidazo[4,5-b]pyridine-5-carboxylic acid] | 4.4 nM
N#Cc1ccc(Cc2cccc(OC3CCN(Cc4nc5ccc(C(=O)O)cc5n4C[C@@H]4CCO4)CC3)n2)c(F)c1 [Compound 135a, 2-{[4-({6-[(4-cyano-2-fluorophenyl)methyl]pyridin-2-yl}oxy)piperidin-1-yl]methyl}-1-{[(2S)-oxetan-2-yl]methyl}-1H-1,3-benzodiazole-6-carboxylic acid] | 1.8 nM
O=C(O)c1ccc2nc(CN3CCC(Oc4cccc(Cc5ccc(Cl)cc5F)n4)C3)n(C[C@@H]3CCO3)c2n1 (stereo partly drawn) [Compound 130a, 2-{[3-({6-[(4-chloro-2-fluorophenyl)methyl]pyridin-2-yl}oxy)pyrrolidin-1-yl]methyl}-3-{[(2S)-oxetan-2-yl]methyl}-3H-imidazo[4,5-b]pyridine-5-carboxylic acid] | 53 nM
O=C(O)c1ccc2nc(Cc3ccc(Oc4nc(Cc5ccc(Cl)cc5)ncc4F)cc3F)n(C[C@@H]3CCO3)c2n1 [Compound 190a, 2-{[4-({2-[(4-chlorophenyl)methyl]-5-fluoropyrimidin-4-yl}oxy)-2-fluorophenyl]methyl}-3-{[(2S)-oxetan-2-yl]methyl}-3H-imidazo[4,5-b]pyridine-5-carboxylic acid] | 0.41 nM
O=C(O)c1ccc2nc(CN3CCC(c4cccc5nc(Cc6ccc(Cl)cc6F)oc45)CC3)n(C[C@@H]3CCO3)c2n1 [Compound 143a, (S)-2-((4-(2-(4-chloro-2-fluorobenzyl)benzo[d]oxazol-7-yl)piperidin-1-yl)methyl)-3-(oxetan-2-ylmethyl)-3H-imidazo[4,5-b]pyridine-5-carboxylic acid] | 0.53 nM
O=C(O)c1ccc2nc(CN3CCC(Oc4ccnc(Cc5ccc(Cl)cc5)n4)CC3)n(C[C@H]3CCOC3)c2n1 [Compound 196a, (R)-2-((4-((2-(4-chlorobenzyl)pyrimidin-4-yl)oxy)piperidin-1-yl)methyl)-3-((tetrahydrofuran-3-yl)methyl)-3H-imidazo[4,5-b]pyridine-5-carboxylic acid] | 1.3 nM
O=C(O)c1ccc2nc(CN3CCC(Oc4nc(Cc5ccc(Cl)cc5F)ccc4Cl)CC3)n(C[C@@H]3CCO3)c2n1 [Compound 137a, 2-{[4-({3-chloro-6-[(4-chloro-2-fluorophenyl)methyl]pyridin-2-yl}oxy)piperidin-1-yl]methyl}-3-{[(2S)-oxetan-2-yl]methyl}-3H-imidazo[4,5-b]pyridine-5-carboxylic acid] | 51 nM
O=C(O)c1ccc2nc(Cc3ccc(Oc4ccnc(Cc5ccc(Cl)cc5)n4)cc3)n(C[C@@H]3CCO3)c2n1 [Compound 186a, 2-{[4-({2-[(4-chlorophenyl)methyl]pyrimidin-4-yl}oxy)phenyl]methyl}-3-{[(2S)-oxetan-2-yl]methyl}-3H-imidazo[4,5-b]pyridine-5-carboxylic acid] | 0.6 nM
O=C(O)c1ccc2nc(CN3CCC(Oc4cccc(Cc5ccc(Cl)cc5)c4F)CC3)n(C[C@@H]3CCO3)c2n1 [Compound 157a, 2-[(4-{3-[(4-chlorophenyl)methyl]-2-fluorophenoxy}piperidin-1-yl)methyl]-3-{[(2S)-oxetan-2-yl]methyl}-3H-imidazo[4,5-b]pyridine-5-carboxylic acid] | 42 nM
O=C(O)c1ccc2nc(CN3CCC(Oc4cccc(Cc5ccc(C6CC6)cc5)n4)CC3)n(C[C@@H]3CCO3)c2n1 [Compound 146a, 2-{[4-({6-[(4-cyclopropylphenyl)methyl]pyridin-2-yl}oxy)piperidin-1-yl]methyl}-3-{[(2S)-oxetan-2-yl]methyl}-3H-imidazo[4,5-b]pyridine-5-carboxylic acid] | 0.62 nM
O=C(O)c1ccc2nc(CN3CCC(Oc4cccc(Cc5ccc(C(F)(F)F)cc5)n4)CC3)n(C[C@@H]3CCO3)c2n1 [Compound 145a, 3-{[(2S)-oxetan-2-yl]methyl}-2-({4-[(6-{[4-(trifluoromethyl)phenyl]methyl}pyridin-2-yl)oxy]piperidin-1-yl}methyl)-3H-imidazo[4,5-b]pyridine-5-carboxylic acid] | 3.4 nM
O=C(O)c1ccc2nc(CN3CCC(Oc4ccnc(Cc5ccc(Cl)cc5)n4)CC3)n(Cc3cn[nH]c3)c2n1 [Compound 193, 3-((1H-pyrazol-4-yl)methyl)-2-((4-((2-(4-chlorobenzyl)pyrimidin-4-yl)oxy)piperidin-1-yl)methyl)-3H-imidazo[4,5-b]pyridine-5-carboxylic acid] | 0.19 nM
